For this experiment, the target named is T1, human glycogen phosphorylase a (Homo sapiens, UniProt P06737).
T1 sequence (P06737 1-847): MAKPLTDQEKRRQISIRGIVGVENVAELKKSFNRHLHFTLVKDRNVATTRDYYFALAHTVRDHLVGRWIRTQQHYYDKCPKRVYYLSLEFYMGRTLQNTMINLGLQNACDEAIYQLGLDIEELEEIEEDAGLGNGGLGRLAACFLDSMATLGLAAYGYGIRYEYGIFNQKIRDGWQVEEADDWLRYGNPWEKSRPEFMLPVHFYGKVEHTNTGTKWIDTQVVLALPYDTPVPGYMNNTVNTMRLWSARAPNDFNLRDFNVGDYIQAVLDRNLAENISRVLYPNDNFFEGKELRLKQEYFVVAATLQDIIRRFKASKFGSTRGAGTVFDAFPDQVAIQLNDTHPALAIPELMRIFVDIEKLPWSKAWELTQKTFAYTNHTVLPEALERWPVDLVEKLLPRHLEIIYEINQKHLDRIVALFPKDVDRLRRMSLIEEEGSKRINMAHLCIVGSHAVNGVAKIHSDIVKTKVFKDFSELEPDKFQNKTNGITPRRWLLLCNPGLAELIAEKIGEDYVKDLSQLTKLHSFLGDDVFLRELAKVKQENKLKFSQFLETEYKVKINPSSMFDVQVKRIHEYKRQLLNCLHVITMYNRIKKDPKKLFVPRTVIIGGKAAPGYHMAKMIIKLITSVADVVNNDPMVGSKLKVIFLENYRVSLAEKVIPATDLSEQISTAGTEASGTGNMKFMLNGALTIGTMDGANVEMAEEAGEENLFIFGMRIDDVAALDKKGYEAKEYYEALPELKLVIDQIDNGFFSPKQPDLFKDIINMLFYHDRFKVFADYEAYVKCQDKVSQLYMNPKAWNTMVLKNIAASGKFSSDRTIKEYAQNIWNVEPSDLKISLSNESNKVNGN
Briefly: Glycogen phosphorylase a activity assay. Format: biochemical. To be noted: 10 μM test substance; reverse direction (glycogen synthesis from glucose 1-phosphate), inorganic phosphate liberation. The method, then:
Glycogen Phosphorylase a Activity Assay
The effect of compounds on the activity of the active form of glycogen phosphorylase (GPa) was measured in the reverse direction by following the synthesis of glycogen from glucose 1-phosphate by determining the liberation of inorganic phosphate. All the reactions were carried out as duplicate determinations in microtiter plates with 96 wells (Half Area Plates, Costar No 3696), measuring the change in absorption owing to the formation of the reaction product at the wavelength specified hereinafter in a Multiskan Ascent Elisa Reader (Lab Systems, Finland).
In order to measure the GPa enzymic activity in the reverse direction, the general method of Engers et al. (Engers H D, Shechosky S, Madsen N B, Can J Biochem 1970 July; 48(7):746-754) was used to measure the conversion of glucose 1-phosphate into glycogen and inorganic phosphate, with the following modifications: human glycogen phosphorylase a (for example with 0.76 mg of protein/ml (Aventis Pharma Deutschland GmbH), dissolved in buffer solution E (25 mM β-glycerophosphate, pH 7.0, 1 mM EDTA and 1 mM dithiothreitol) was diluted with buffer T (50 mM Hepes, pH 7.0, 100 mM KCl, 2.5 mM EDTA, 2.5 mM MgCl2.6H2O) and addition of 5 mg/ml glycogen to a concentration of 10 μg of protein/ml. […] After incubation at 45° C. for 60 minutes, the absorption at 820 nm was measured. […]

As a reminder, the inhibition is the change of the read-out against control, counted positive when it falls.

On to `C#CC1(Nc2cc3c(=O)c(C(=O)OCC)cn(CC)c3nc2C)CCCCC1` [Example 2], for which the inhibition at 10 µM came to 42%.
As for `C#CC1(Nc2cc3c(=O)c(C(=O)O)cn(CC)c3nc2C)CCCCC1` [Example 3, 1-Ethyl-6-(1-ethynylcyclohexylamino)-7-methyl-4-oxo-1,4-dihydro[1,8]naphthyridine-3-carboxylic acid], the inhibition at 10 µM amounted to 35%.
